Test results published in the supplement of paper PMC10307832.

How the values were obtained:
Experiment in all cases: relative viability (nuclei count vs DMSO), 5 days (fraction); higher = more cells survive
Linifanib + OSI-027 = compound: Cc1ccc(F)c(NC(=O)Nc2ccc(-c3cccc4[nH]nc(N)c34)cc2)c1 [Linifanib] + COc1cccc2cc(-c3nc([C@H]4CC[C@H](C(=O)O)CC4)n4ncnc(N)c34)[nH]c12 [OSI-027] (partner 0.5 µM)
Method in brief: (§1)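 Lung cancer cell lines in 1536-well plates were dosed by pin tool the day after seeding, either with one drug alone or with a fixed anchor-drug dose plus five library-drug doses (not always all listed) in √10 steps. After 5 days, cells were fixed and their nuclei stained in one step (final 0.05% Triton X-100, 1% formaldehyde, 1 ug/ml Hoechst), then counted on 4× images. Relative viability is the nuclei count in treated wells divided by that in vehicle wells. Values are medians of duplicate plates.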

Linifanib + Pemetrexed = compound: Cc1ccc(F)c(NC(=O)Nc2ccc(-c3cccc4[nH]nc(N)c34)cc2)c1 [Linifanib] + Nc1nc2[nH]cc(CCc3ccc(C(=O)N[C@@H](CCC(=O)O)C(=O)O)cc3)c2c(=O)[nH]1 [Pemetrexed] (partner 0.2 µM)
Method in brief: as §1

Linifanib + Olaparib = compound: Cc1ccc(F)c(NC(=O)Nc2ccc(-c3cccc4[nH]nc(N)c34)cc2)c1 [Linifanib] + O=C(c1cc(Cc2n[nH]c(=O)c3ccccc23)ccc1F)N1CCN(C(=O)C2CC2)CC1 [Olaparib] (partner 8 µM)
Method in brief: as §1

Linifanib + Alpelisib = compound: Cc1ccc(F)c(NC(=O)Nc2ccc(-c3cccc4[nH]nc(N)c34)cc2)c1 [Linifanib] + Cc1nc(NC(=O)N2CCC[C@H]2C(N)=O)sc1-c1ccnc(C(C)(C)C(F)(F)F)c1 [Alpelisib] (partner 2 µM)
Method in brief: as §1

Linifanib + Navitoclax = compound: Cc1ccc(F)c(NC(=O)Nc2ccc(-c3cccc4[nH]nc(N)c34)cc2)c1 [Linifanib] + CC1(C)CCC(c2ccc(Cl)cc2)=C(CN2CCN(c3ccc(C(=O)NS(=O)(=O)c4ccc(N[C@H](CCN5CCOCC5)CSc5ccccc5)c(S(=O)(=O)C(F)(F)F)c4)cc3)CC2)C1 [Navitoclax] (partner 0.5 µM)
Method in brief: as §1

Linifanib + Luminespib = compound: Cc1ccc(F)c(NC(=O)Nc2ccc(-c3cccc4[nH]nc(N)c34)cc2)c1 [Linifanib] + CCNC(=O)c1noc(-c2cc(C(C)C)c(O)cc2O)c1-c1ccc(CN2CCOCC2)cc1 [Luminespib] (partner 0.01 µM)
Method in brief: as §1

Row | Cell Line | relative viability (Linifanib + OSI-027; first compound 0.03162 µM) | relative viability (Linifanib + OSI-027; first compound 0.1 µM) | relative viability (Linifanib + OSI-027; first compound 0.3162 µM) | relative viability (Linifanib + Pemetrexed; first compound 0.03162 µM) | relative viability (Linifanib + Pemetrexed; first compound 0.1 µM) | relative viability (Linifanib + Pemetrexed; first compound 0.3162 µM) | relative viability (Linifanib + Olaparib; first compound 0.03162 µM) | relative viability (Linifanib + Olaparib; first compound 0.1 µM) | relative viability (Linifanib + Olaparib; first compound 0.3162 µM) | relative viability (Linifanib + Alpelisib; first compound 0.03162 µM) | relative viability (Linifanib + Alpelisib; first compound 0.1 µM) | relative viability (Linifanib + Alpelisib; first compound 0.3162 µM) | relative viability (Linifanib + Navitoclax; first compound 0.03162 µM) | relative viability (Linifanib + Navitoclax; first compound 0.1 µM) | relative viability (Linifanib + Navitoclax; first compound 0.3162 µM) | relative viability (Linifanib + Luminespib; first compound 0.03162 µM) | relative viability (Linifanib + Luminespib; first compound 0.1 µM) | relative viability (Linifanib + Luminespib; first compound 0.3162 µM)
1 | NCI-H1651 | 0.624 | 0.8 | 0.829 | 0.648 | 0.612 | 0.561 | 0.181 | 0.202 | 0.195 | 0.883 | 0.838 | 0.996 | 0.91 | 1.24 | 0.999 | 0.945 | 0.748 | 0.797
2 | LCLC-103H | 0.514 | 0.481 | 0.408 | 0.477 | 0.469 | 0.458 | 0.752 | 0.78 | 0.732 | 0.838 | 0.927 | 0.894 |  |  |  | 0.971 | 0.973 | 0.889
3 | LXF-289 | 0.905 | 0.829 | 0.774 | 0.97 | 0.906 | 0.853 | 1.13 | 1.2 | 0.898 | 1.11 | 1.04 | 1.02 | 0.936 | 0.953 | 0.883 | 0.766 | 0.866 | 0.674
4 | NCI-H2023 | 0.426 | 0.539 | 0.37 | 0.259 | 0.275 | 0.232 | 0.518 | 0.615 | 0.46 | 0.585 | 0.598 | 0.564 | 0.929 | 1.07 | 0.981 | 0.7 | 0.925 | 0.757
5 | NCI-H650 | 0.493 | 0.584 | 0.514 | 0.899 | 1.15 | 0.899 | 0.348 | 0.397 | 0.361 | 1.09 | 1.04 | 1.14 |  |  |  | 0.816 | 0.611 | 0.71
6 | NCI-H1395 | 0.611 | 0.756 | 0.573 | 0.92 | 1.02 | 0.825 | 0.462 | 0.463 | 0.461 | 1.2 | 1.02 | 1.08 | 1.19 | 1.17 | 1.21 | 0.684 | 0.824 | 0.622
7 | NCI-H322M | 0.629 | 0.584 | 0.503 | 0.598 | 0.589 | 0.65 | 0.832 | 0.809 | 0.796 | 0.81 | 0.823 | 0.754 | 1.25 | 1.14 | 1.17 | 0.88 | 0.863 | 0.882
8 | NCI-H23 | 0.577 | 0.75 | 0.572 | 0.66 | 0.882 | 0.761 | 0.358 | 0.347 | 0.186 | 0.563 | 0.807 | 0.76 | 0.98 | 0.99 | 0.61 | 0.238 | 0.217 | 0.225
9 | ABC-1 | 0.506 | 0.433 | 0.381 |  |  |  | 0.765 | 0.725 | 0.681 | 0.928 | 1.05 | 0.927 |  |  |  | 0.497 | 0.558 | 0.783
10 | ChaGo-K-1 | 0.584 | 0.602 | 0.673 | 0.255 | 0.262 | 0.238 | 0.456 | 0.445 | 0.448 |  |  |  | 0.991 | 1.17 | 0.978 | 0.636 | 0.777 | 0.563
11 | HCC-78 | 0.391 | 0.396 | 0.344 | 0.944 | 0.926 | 0.85 | 0.946 | 0.77 | 0.943 | 0.339 | 0.357 | 0.363 | 0.791 | 0.74 | 0.792 |  |  | 
12 | NCI-H358 | 0.836 | 1.06 | 0.748 | 0.168 | 0.166 | 0.155 | 0.521 | 0.771 | 0.55 | 0.897 | 0.879 | 0.795 |  |  |  | 0.366 | 0.374 | 0.416
13 | SW 900 | 0.507 | 0.808 | 0.47 | 0.495 | 0.496 | 0.481 | 0.909 | 1.04 | 0.75 |  |  |  |  |  |  | 0.168 | 0.172 | 0.153
14 | NCI-H2342 | 0.638 | 0.654 | 0.624 | 0.791 | 0.832 | 0.769 | 0.512 | 0.481 | 0.381 |  |  |  |  |  |  | 0.736 | 0.766 | 0.613
15 | NCI-H661 | 0.726 | 0.714 | 0.647 | 0.932 | 0.925 | 0.904 | 0.771 | 0.783 | 0.7 | 0.647 | 0.787 | 0.515 |  |  |  | 0.922 | 0.907 | 0.926
16 | NCI-H1650 | 0.752 | 0.78 | 0.585 | 0.364 | 0.346 | 0.348 | 0.78 | 0.971 | 0.753 |  |  |  | 0.998 | 1.35 | 1.21 | 0.2 | 0.188 | 0.205
17 | NCI-H727 | 0.642 | 0.635 | 0.722 |  |  |  | 0.938 | 0.744 | 0.784 | 0.613 | 0.6 | 0.483 | 0.407 | 0.402 | 0.415 | 0.312 | 0.292 | 0.358
18 | HCC-366 | 0.898 | 1.29 | 0.795 | 0.159 | 0.15 | 0.139 | 0.337 | 0.458 | 0.323 | 0.533 | 0.664 | 0.357 | 1.12 | 1.11 | 0.874 |  |  | 
